We go through 18 molecules from US20070208005A1, “TETRAHYDROBENZAZEPINES AS ANTAGONISTS AND/OR REVERSE AGONISTS OF THE HISTAMINE H3 RECEPTOR” (priority 2004, published 2007).

T1 sequence (Q9Y5N1 whole entry): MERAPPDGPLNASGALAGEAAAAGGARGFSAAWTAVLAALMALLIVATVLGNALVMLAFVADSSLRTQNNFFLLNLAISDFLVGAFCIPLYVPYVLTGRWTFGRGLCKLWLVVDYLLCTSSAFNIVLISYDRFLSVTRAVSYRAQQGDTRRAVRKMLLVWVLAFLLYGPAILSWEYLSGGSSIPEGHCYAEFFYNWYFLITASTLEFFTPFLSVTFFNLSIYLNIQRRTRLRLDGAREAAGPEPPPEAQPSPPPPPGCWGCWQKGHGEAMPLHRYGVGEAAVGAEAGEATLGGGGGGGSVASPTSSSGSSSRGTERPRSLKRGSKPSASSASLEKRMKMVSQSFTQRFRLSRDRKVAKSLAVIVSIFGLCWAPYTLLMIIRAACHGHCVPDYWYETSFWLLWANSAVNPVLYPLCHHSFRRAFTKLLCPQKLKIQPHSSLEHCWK

This experiment has as its target T1, histamine H3 receptor (Homo sapiens, UniProt Q9Y5N1).
T1 construct: expressed in transfected cells; host or cells: CHO K1 cells (pSwitch/pGene GeneSwitch system, mifepristone-induced), clone 3H3; membranes
Description: Histamine H3 functional antagonist assay ([35S]-GTPγS SPA on membranes of H3 cells). The class given is biochemical. The following applies: membrane prepared from cultured H3 cells (CHO K1, human H3); histamine at EC80; averages of a number of experiments; read-out: functional pKi (fpKi), H3 functional antagonist assay (converted). An excerpt:
A membrane preparation containing histamine H3 receptors may be prepared in accordance with the following procedures:
(i) Generation of Histamine H3 Cell Line
DNA encoding the human histamine H3 gene (Huvar, A. et al. (1999) Mol. Pharmacol. 55(6), 1101-1107) was cloned into a holding vector, pcDNA3.1 TOPO (InVitrogen) and its cDNA was isolated from this vector by restriction digestion of plasmid DNA with the enzymes BamH1 and Not-1 and ligated into the inducible expression vector pGene (InVitrogen) digested with the same enzymes. The GeneSwitch™ system (a system where in transgene expression is switched off in the absence of an inducer and switched on in the presence of an inducer) was performed as described in U.S. Pat. Nos. 5,364,791; 5,874,534; and 5,935,934. Ligated DNA was transformed into competent DH5α E. coli host bacterial cells and plated onto Luria Broth (LB) agar containing Zeocin™ (an antibiotic which allows the selection of cells expressing the sh ble gene which is present on pGene and pSwitch) at 50 μg ml^−1. Colonies containing the re-ligated plasmid were identified by restriction analysis. DNA for transfection into mammalian cells was prepared from 250 ml cultures of the host bacterium containing the pGeneH3 plasmid and isolated using a DNA preparation kit (Qiagen Midi-Prep) as per manufacturers guidelines (Qiagen). CHO K1 cells previously transfected with the pSwitch regulatory plasmid (InVitrogen) were seeded at 2×10e6 cells per T75 flask in Complete Medium, containing Hams F12 (GIBCOBRL, Life Technologies) medium supplemented with 10% v/v dialysed foetal bovine serum, L-glutamine, and hygromycin (100 μg ml^−1), 24 hours prior to use. Plasmid DNA was transfected into the cells using Lipofectamine plus according to the manufacturers guidelines (InVitrogen). 48 hours post transfection cells were placed into complete medium supplemented with 500 μg ml^−1 Zeocin™.
10-14 days post selection 10 nM Mifepristone (InVitrogen), was added to the culture medium to induce the expression of the receptor. 18 hours post induction cells were detached from the flask using ethylenediamine tetra-acetic acid (EDTA; 1:5000; InVitrogen), following several washes with phosphate buffered saline pH 7.4 and resuspended in Sorting Medium containing Minimum Essential Medium (MEM), without phenol red, and supplemented with Earles salts and 3% Foetal Clone II (Hyclone). Approximately 1×10e7 cells were examined for receptor expression by staining with a rabbit polyclonal antibody, 4a, raised against the N-terminal domain of the histamine H3 receptor, incubated on ice for 60 minutes, followed by two washes in sorting medium. Receptor bound antibody was detected by incubation of the cells for 60 minutes on ice with a goat anti rabbit antibody, conjugated with Alexa 488 fluorescence marker (Molecular Probes). Following two further washes with Sorting Medium, cells were filtered through a 50 μm Filcon™ (BD Biosciences) and then analysed on a FACS Vantage SE Flow Cytometer fitted with an Automatic Cell Deposition Unit. Control cells were non-induced cells treated in a similar manner. Positively stained cells were sorted as single cells into 96-well plates, containing Complete Medium containing 500 μg ml^−1 Zeocin™ and allowed to expand before reanalysis for receptor expression via antibody and ligand binding studies. One clone, 3H3, was selected for membrane preparation.
(ii) Membrane Preparation from Cultured Cells
All steps of the protocol are carried out at 4° C. and with pre-cooled reagents. The cell pellet is resuspended in 10 volumes of homogenisation buffer (50 mM N-2-hydroxyethylpiperazine-N′-2-ethanesulfonic acid (HEPES), 1 mM ethylenediamine tetra-acetic acid (EDTA), pH 7.4 with KOH, supplemented with 10e-6M leupeptin (acetyl-leucyl-leucyl-arginal; Sigma L2884), 25 μg/ml bacitracin (Sigma B0125), 1 mM phenylmethylsulfonyl fluoride (PMSF) and 2×10e-6M pepstain A (Sigma)). […]
Take `CN1CCN(c2ccc(Cc3ccc4c(c3)CCN(C3CCC3)CC4)cn2)C1=O` [Example E40, 1-{5-[(3-Cyclobutyl-2,3,4,5-tetrahydro-1H-3-benzazepin-7-yl)methyl]-2-pyridinyl}-3-methyl-2-imidazolidinone]: the Ki was less than 3.16 nM.

With `N#Cc1ccc(Cc2ccc3c(c2)CCN(C2CCC2)CC3)nc1` [Example E41, 6-[(3-cyclobutyl-2,3,4,5-tetrahydro-1H-3-benzazepin-7-yl)methyl]-3-pyridinecarbonitrile], the Ki is less than 3.16 nM.

As for `CNC(=O)c1ccc(Cc2ccc3c(c2)CCN(C2CCC2)CC3)nc1` [Example E42, 6-[(3-cyclobutyl-2,3,4,5-tetrahydro-1H-3-benzazepin-7-yl)methyl]-N-methyl-3-pyridinecarboxamide], the Ki was less than 3.16 nM.

As for `O=C(c1ccc(Cc2ccc3c(c2)CCN(C2CCC2)CC3)nc1)N1CCCC1` [Example E43, 3-cyclobutyl-7-{[5-(1-pyrrolidinylcarbonyl)-2-pyridinyl]methyl}-2,3,4,5-tetrahydro-1H-3-benzazepine], the Ki was less than 3.16 nM.

For `NC(=O)c1ccc(Cc2ccc3c(c2)CCN(C2CCC2)CC3)nc1` [Example E44, 6-[(3-cyclobutyl-2,3,4,5-tetrahydro-1H-3-benzazepin-7-yl)methyl]-3-pyridinecarboxamide], the Ki is less than 3.16 nM.

Consider `NC(=O)c1ccc(Cc2ccc3c(c2)CCN(C2CCC2)CC3)cc1` [Example E46, 4-[(3-cyclobutyl-2,3,4,5-tetrahydro-1H-3-benzazepin-7-yl)methyl]benzamide], for which the Ki is less than 0.316 nM.

Regarding `CCNC(=O)c1ccc(Cc2ccc3c(c2)CCN(C2CCC2)CC3)cc1` [Example E48, 4-[(3-cyclobutyl-2,3,4,5-tetrahydro-1H-3-benzazepin-7-yl)methyl]-N-ethylbenzamide], the Ki was less than 3.16 nM.

For the molecule `O=C(c1ccc(Cc2ccc3c(c2)CCN(C2CCC2)CC3)cc1)N1CCCC1` [Example E49, 3-cyclobutyl-7-{[4-(1-pyrrolidinylcarbonyl)phenyl]methyl}-2,3,4,5-tetrahydro-1H-3-benzazepine], the Ki is less than 3.16 nM.

On to `O=C(NC1CCOCC1)c1ccc(Cc2ccc3c(c2)CCN(C2CCC2)CC3)cc1` [Example E50, 4-[(3-cyclobutyl-2,3,4,5-tetrahydro-1H-3-benzazepin-7-yl)methyl]-N-(tetrahydro-2H-pyran-4-yl)benzamide], for which the Ki is less than 3.16 nM.

In the case of `CC(C)NC(=O)c1ccc(Cc2ccc3c(c2)CCN(C2CCC2)CC3)cc1` [Example E51, 4-[(3-cyclobutyl-2,3,4,5-tetrahydro-1H-3-benzazepin-7-yl)methyl]-N-(1-methylethyl)benzamide], the Ki was less than 3.16 nM.

As to `CC(C)NC(=O)c1ccc(Cc2ccc3c(c2)CCN(C2CCC2)CC3)cn1` [Example E53, 5-[(3-cyclobutyl-2,3,4,5-tetrahydro-1H-3-benzazepin-7-yl)methyl]-N-(1-methylethyl)-2-pyridinecarboxamide], the Ki was less than 3.16 nM.

Regarding `O=C(c1ccc(Cc2ccc3c(c2)CCN(C2CCC2)CC3)cn1)N1CCCC1` [Example E54, 3-cyclobutyl-7-{[6-(1-pyrrolidinylcarbonyl)-3-pyridinyl]methyl}-2,3,4,5-tetrahydro-1H-3-benzazepine], the Ki is less than 3.16 nM.

Regarding `O=C(NC1CCOCC1)c1ccc(Cc2ccc3c(c2)CCN(C2CCC2)CC3)cn1` [Example E55, 5-[(3-cyclobutyl-2,3,4,5-tetrahydro-1H-3-benzazepin-7-yl)methyl]-N-(tetrahydro-2H-pyran-4-yl)-2-pyridinecarboxamide], the Ki is less than 3.16 nM.

In the case of `N#Cc1ccc(NC(=O)c2ccc(Cc3ccc4c(c3)CCN(C3CCC3)CC4)cn2)cc1` [Example E56, N-(4-cyanophenyl)-5-[(3-cyclobutyl-2,3,4,5-tetrahydro-1H-3-benzazepin-7-yl)methyl]-2-pyridinecarboxamide], the Ki is less than 3.16 nM.

In the case of `c1cc(-c2csnn2)ccc1Cc1ccc2c(c1)CCN(C1CCC1)CC2` [Example E57, 3-cyclobutyl-7-{[4-(1,2,3-thiadiazol-4-yl)phenyl]methyl}-2,3,4,5-tetrahydro-1H-3-benzazepine], the Ki was less than 0.316 nM.

As to `O=c1nc(-c2ccc(Cc3ccc4c(c3)CCN(C3CCC3)CC4)cc2)[nH]o1` [Example E58, 3-{4-[(3-cyclobutyl-2,3,4,5-tetrahydro-1H-3-benzazepin-7-yl)methyl]Phenyl}-1,2,4-oxadiazol-5(2H)-one], the Ki is less than 3.16 nM.

With `c1cnn(-c2ccc(Cc3ccc4c(c3)CCN(C3CCC3)CC4)cc2)c1` [Example E59, 3-cyclobutyl-7-{[4-(1H-pyrazol-1-yl)phenyl]methyl}-2,3,4,5-tetrahydro-1H-3-benzazepine], the Ki is less than 0.316 nM.

As to `c1ncn(-c2ccc(Cc3ccc4c(c3)CCN(C3CCC3)CC4)cc2)n1` [Example E60, 3-cyclobutyl-7-{[4-(1H-1,2,4-triazol-1-yl)phenyl]methyl}-2,3,4,5-tetrahydro-1H-3-benzazepine], the Ki was less than 0.316 nM.
